Starred links: 1 amine or outer side, 2 acyl side, 3 side chain; linkers in the order of their positions; H or OH if unused. Non-standard residues stand in square brackets, D forms with d. Residues, ends and D or L forms follow the SMILES beside them. Groups on a side chain read outwards from the residue. *: point of attachment. C20 diacid = O=C(O)CCCCCCCCCCCCCCCCCCC(=O)*; γGlu = O=C(O)[C@H](CCC(=O)[*:2])N[*:1]; AEEA = NCCOCCOCC(=O)O; Aib = CC(C)(N)C(=O)O
Experiments:
GCGR [1] = biological target: T1, GCGR (Homo sapiens, UniProt P47871); assay: Glucagon activity in vitro of PEGylated and acylated OXM peptide analogs (Table 12); format: cell-based; conditions: for GCGR/GLP-1R: ratio of EC50 activity
Protocol: (§1) The potential benefits of novel acylated OXM products relative to the PEGylated OXM peptide were evaluated for GLP-1 and Glucagon activity in vitro, molecular weight, dosing, and efficacy in a DIO Mouse model.
(§2) The potency of the acylated OXM peptides was compared with the native OXM peptide alone and Pegylated OXM peptide to evaluate the impact of acylation on GLP-1 and Glucagon activities.

GLP1 [2] = biological target: T2, GLP1 (Homo sapiens, UniProt P43220); assay: GLP-1 activity in vitro of PEGylated and acylated OXM peptide analogs (Table 12); format: cell-based
Protocol: as §1, §2

DIO mice = assay: Weight loss in DIO mice with OPK-88604 and OPK-88006, 30 nmoles/kg; format: in vivo; conditions: vs placebo
Protocol: The animals were individually weighed and analyzed for lipid and cholesterol levels prior to treatment and following completion of the study. The levels of fasting glucose and insulin levels were analyzed, and oral glucose tolerance test was performed and compared between groups The levels of plasma triglycerides and cholesterol were evaluated at the end of study and compared to base levels prior to treatment. Levels of total cholesterol, triglycerides and glycogen were also examined at the end of study. Histology of liver was used to analyze for lipid droplets in the liver. All tests were conducted using routine methods known in the art.
DIO mice with weights of around 55 grams were divided into three groups and treated with placebo, 30 nmoles/kg of OPK-88604, or 30 nmoles/kg of OPK-88006 for 4 weeks. The animals were weighed daily for the period of treatment.

[3] = Viscosity of the formulated PEGylated OXM product; format: physicochemical
[4] = biological target: T3, glucagon-like peptide-1 (GLP1) receptor (Homo sapiens, UniProt P43220); assay: GLP-1 activity EC50 of OXM analogs and GLP-1 therapeutics (Example 4, Table 9); format: cell-based; conditions: Example 4; read-out: GLP-1 activity (EC50)
T3 construct: expressed in transfected cells; host or cells: CHO-K1
Description: The potencies of the modified OXM analogs newly disclosed in the present application, the OXM Analog alone, and the PEGylated OXM analog were examined and compared by measuring the EC50 of both receptors, glucagon-like peptide-1 (GLP1) and glucagon (GCGR).

GLP1 [5] = biological target: T2, GLP1; assay: CBA potency assay, GLP1 (Tables 10 and 11); format: cell-based
Description: (§3) The impact of the longevity-enabling molecule (PEG Vs. FA-peptide/binder complex) on the peptide potency was studied.

GCGR [6] = biological target: T1, GCGR; assay: CBA potency assay, GCGR (Tables 10 and 11); format: cell-based
Description: as §3

T1 sequence (P47871 26-477): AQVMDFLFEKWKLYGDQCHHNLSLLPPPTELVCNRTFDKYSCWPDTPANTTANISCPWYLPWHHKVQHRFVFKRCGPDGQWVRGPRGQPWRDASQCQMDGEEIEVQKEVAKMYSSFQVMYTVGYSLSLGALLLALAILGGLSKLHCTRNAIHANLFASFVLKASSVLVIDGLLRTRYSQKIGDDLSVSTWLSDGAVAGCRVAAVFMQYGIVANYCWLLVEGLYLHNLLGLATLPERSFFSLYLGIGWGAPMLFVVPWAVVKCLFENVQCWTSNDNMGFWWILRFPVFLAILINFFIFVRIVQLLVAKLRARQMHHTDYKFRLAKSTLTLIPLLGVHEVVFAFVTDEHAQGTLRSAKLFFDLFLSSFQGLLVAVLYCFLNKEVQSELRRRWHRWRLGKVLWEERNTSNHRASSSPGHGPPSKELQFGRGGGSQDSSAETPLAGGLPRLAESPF
T2 sequence (P43220 24-463): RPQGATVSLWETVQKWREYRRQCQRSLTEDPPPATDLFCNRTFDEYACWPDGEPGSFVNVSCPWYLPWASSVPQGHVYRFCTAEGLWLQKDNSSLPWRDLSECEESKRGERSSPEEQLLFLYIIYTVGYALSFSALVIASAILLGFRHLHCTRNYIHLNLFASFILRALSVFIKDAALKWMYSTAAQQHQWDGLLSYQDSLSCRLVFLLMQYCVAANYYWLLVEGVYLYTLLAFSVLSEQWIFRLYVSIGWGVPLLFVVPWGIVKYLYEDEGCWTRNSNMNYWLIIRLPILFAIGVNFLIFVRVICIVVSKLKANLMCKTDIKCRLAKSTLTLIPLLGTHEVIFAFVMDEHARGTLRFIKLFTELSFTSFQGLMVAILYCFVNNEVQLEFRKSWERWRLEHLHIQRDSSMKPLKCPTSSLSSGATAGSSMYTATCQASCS
T3 sequence (P43220 24-463): as above

Question: With `CC[C@H](C)[C@H](NC(=O)[C@H](CC(N)=O)NC(=O)[C@H](CC(N)=O)NC(=O)[C@H](CCCNC(=N)N)NC(=O)[C@H](CC(N)=O)NC(=O)[C@H](CCCNC(=N)N)NC(=O)CNC(=O)C(C)(C)NC(=O)[C@H](CC(N)=O)NC(=O)[C@H](CC(C)C)NC(=O)[C@H](CC(C)C)NC(=O)[C@H](Cc1c[nH]c2ccccc12)NC(=O)[C@H](CCC(N)=O)NC(=O)[C@@H](NC(=O)[C@H](Cc1ccccc1)NC(=O)[C@H](CCC(=O)O)NC(=O)[C@H](CCC(N)=O)NC(=O)[C@H](C)NC(=O)[C@H](CCCCN)NC(=O)[C@H](CCCCN)NC(=O)[C@H](CO)NC(=O)[C@H](CC(=O)O)NC(=O)[C@H](CC(C)C)NC(=O)[C@H](Cc1ccc(O)cc1)NC(=O)[C@H](CCCCN)NC(=O)[C@H](CO)NC(=O)[C@H](Cc1ccc(O)cc1)NC(=O)[C@H](CC(=O)O)NC(=O)[C@H](CO)NC(=O)[C@@H](NC(=O)[C@H](Cc1ccccc1)NC(=O)[C@@H](NC(=O)CNC(=O)[C@H](CCC(N)=O)NC(=O)C(C)(C)NC(=O)[C@@H](N)Cc1c[nH]cn1)[C@@H](C)O)[C@@H](C)O)C(C)C)C(=O)N[C@@H](C)C(=O)N[C@@H](CCCCNC(=O)COCCOCCNC(=O)COCCOCCNC(=O)CC[C@H](NC(=O)CCCCCCCCCCCCCCCCCCC(=O)O)C(=O)O)C(=O)NCC(N)=O` [Variant 5] (H-H[Aib]QGTFTSDYSKYLDSKKAQEFVQWLLN[Aib]GRNRNNIAK([AEEA-AEEA-γGlu-C20 diacid])G-NH2) as the molecule, how does the EC50 (GCGR [1]) read?
Answer: Its EC50 is 0.31 nM.

Question: What about the GCGR/GLP-1R (GCGR [1]) of the same molecule?
Answer: The GCGR/GLP-1R was 16.3.

Question: What about the EC50 (GLP1 [2]) of the same molecule?
Answer: The EC50 was 0.019 nM.

Question: What about the “weight loss over 4 weeks (FIG. 41A, 41B)” value (DIO mice) of the same molecule?
Answer: Its value is “significant weight loss over 4 weeks”.

Question: Which “viscosity of the formulated product” value [3] does the source give for “OPK-88003 API: SEQ ID NO: 3 where Xaa38=Cys-PEG20 and Xaa39=Cys-PEG20” here?
Answer: Its value is “high viscosity”.

Question: What does the source list for `CC[C@H](C)[C@H](NC(=O)[C@H](CC(N)=O)NC(=O)[C@H](CC(N)=O)NC(=O)[C@H](CCCNC(=N)N)NC(=O)[C@H](CC(N)=O)NC(=O)[C@H](CCCNC(=N)N)NC(=O)CNC(=O)C(C)(C)NC(=O)[C@H](CC(N)=O)NC(=O)[C@H](CC(C)C)NC(=O)[C@H](CC(C)C)NC(=O)[C@H](Cc1c[nH]c2ccccc12)NC(=O)[C@H](CCC(N)=O)NC(=O)[C@@H](NC(=O)[C@H](Cc1ccccc1)NC(=O)[C@H](CCC(=O)O)NC(=O)[C@H](CCC(N)=O)NC(=O)[C@H](C)NC(=O)[C@H](CCCCN)NC(=O)[C@H](CCCCN)NC(=O)[C@H](CO)NC(=O)[C@H](CC(=O)O)NC(=O)[C@H](CC(C)C)NC(=O)[C@H](Cc1ccc(O)cc1)NC(=O)[C@H](CCCCN)NC(=O)[C@H](CO)NC(=O)[C@H](Cc1ccc(O)cc1)NC(=O)[C@H](CC(=O)O)NC(=O)[C@H](CO)NC(=O)[C@@H](NC(=O)[C@H](Cc1ccccc1)NC(=O)[C@@H](NC(=O)CNC(=O)[C@H](CCC(N)=O)NC(=O)C(C)(C)NC(=O)[C@@H](N)Cc1c[nH]cn1)[C@@H](C)O)[C@@H](C)O)C(C)C)C(=O)N[C@@H](C)C(=O)N[C@@H](CS)C(=O)N[C@@H](CS)C(N)=O` [OPK-88003 KPI]?
Answer: EC50 (GCGR [1]): 0.0731 nM; GCGR/GLP-1R (GCGR [1]): 4.4; EC50 [4]: 0.105 nM; % EC50 compare to KPI (GLP1) (GLP1 [5]; Table 10): 100%; EC50 (GLP1 [5]; Table 10): 0.127 nM; % EC50 compare to KPI (GLP1) (GLP1 [5]; Table 11, + HSA): 107%; EC50 (GLP1 [5]; Table 11, + HSA): 0.187 nM; % EC50 compare to KPI (GLP1) (GLP1 [5]; Table 11, without HSA): 100%; EC50 (GLP1 [5]; Table 11, without HSA): 0.201 nM; EC50 (GLP1 [2]): 0.0168 nM; % EC50 compare to KPI (GCGR) (GCGR [6]; Table 10): 100%; EC50 (GCGR [6]; Table 10): 0.6 nM; EC50 ratio (GCGR\GLP-1R) (GCGR [6]; Table 10): 4.7; % EC50 compare to KPI (GCGR) (GCGR [6]; Table 11, + HSA): 129%; EC50 (GCGR [6]; Table 11, + HSA): 1.06 nM; EC50 ratio (GCGR\GLP-1R) (GCGR [6]; Table 11, + HSA): 5.7; % EC50 compare to KPI (GCGR) (GCGR [6]; Table 11, without HSA): 100%; EC50 (GCGR [6]; Table 11, without HSA): 1.37 nM; EC50 ratio (GCGR\GLP-1R) (GCGR [6]; Table 11, without HSA): 6.8
